Test results: US20040044006A1, “Methods of use of quinolone compounds against pneumococcal and haemophilus bacteria” (priority 1999, published 2004)
Values after ≈ are worked out from the molar mass of the structure shown. Values joined by “and” are separate entries in the source; they are usually repeats but may differ in a detail not shown here. Identical values can stand only once. Like-named read-outs stand apart in the source and are kept apart here.

Legend:
[1] = system: penicillin susceptible and resistant pneumococcal strains (2 quinolone resistant); experiment: Time-kill testing of 12 pneumococcal strains; format: cell-based, Streptococcus pneumoniae
Description: For time-kill studies, glass tubes containing 5 ml cation-adjusted Mueller-Hinton broth (Difco)+5% lysed horse blood with doubling antibiotic concentrations were inoculated with 5×10^5 to 5×10^6 cfu/ml and incubated at 35° C. in a shaking water bath. […] Growth controls with inoculum but no antibiotic were included with each experiment (Pankuch, et al., Antimicrob. Agents Chemother. 38:2065-2072, 1994; Pankuch, et al., Antimicrob. Agents Chemother. 40:1653-1656, 1996).
Lysed horse blood was prepared as described previously. The bacterial inoculum was prepared by diluting a 16 h broth (medium as above) culture in the same medium. Dilutions required to obtain the correct inoculum (5×10^5-5×10^6 cfu/ml) were determined by prior viability studies using each strain (Pankuch, et al., Antimicrob. Agents Chemother. 38:2065-2072, 1994; Pankuch, et al., Antimicrob. Agents Chemother. 40: 1653-1656, 1996).
To inoculate each tube of serially diluted antibiotic, 50 μl of diluted inoculum was delivered by pipette beneath the surface of the broth. Tubes were then vortexed and plated for viability counts within 10 min (approximately 0.2 h). The original inoculum was determined by using the untreated growth control. Only tubes containing an initial inoculum within the range of 5×10^5 to 5×10^6 cfu/ml were acceptable (Pankuch, et al., Antimicrob. Agents Chemother. 38:2065-2072, 1994; Pankuch, et al., Antimicrob. Agents Chemother. 40:1653-1656, 1996).
Viability counts of antibiotic-containing suspensions were performed by plating ten-fold dilutions of 0.1 ml aliquots from each tube in sterile Mueller-t-Hinton broth onto trypticase soy agar 5% sheep blood agar plates (BBL). Recovery plates were incubated for up to 72 h. Colony Counts were performed on plates yielding 30-300 colonies. The lower limit of sensitivity of colony counts was 300 cfu/ml (Pankuch, et al., Antimicrob. Agents Chemother. 38:2065-2072, 1994; Pankuch, et al., Antimicrob. Agents Chemother. 40:1653-1656, 1996).
Time-kill assays were analysed by determining the number of strains which yielded a log10 cfu/ml of −1, −2 and −3 at 0, 3, 6, 12 and 24 h, compared to counts at time 0 h. Antimicrobials were considered bactericidal at the lowest concentration that reduced the original inoculum by ≧3 log10 cfu/ml (99.9%) at each of the time periods, and bacteriostatic if the inoculum was reduced by 0-3 log10 cfu/ml. […] The problem of bacterial carryover was addressed as described previously. For macrolide time-kill testing, only strains with MICs≦4.0 μg/ml were tested (Pankuch, et al., Antimicrob. Agents Chemother. 38:2065-9072, 1994; Pankuch, et al., Antimicrob. Agents Chemother. 40:1653-1656, 1996).

[2] = system: methicillin-susceptible and -resistant Staphylococcus aureus, methicillin-resistant Staphylococcus epidermidis and S. pneumoniae; details: previous studies; cited from earlier work
[3] = system: quinolone susceptible pneumococci (ciprofloxacin MICs ≦4.0 μg/ml); experiment: Agar dilution MICs of 207 quinolone susceptible pneumococcal strains; format: cell-based, Streptococcus pneumoniae; details: Streptococcus pneumoniae; for MIC90: read-out: MIC90
Method in brief: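 Agar dilution MICs by prior methods on Mueller-Hinton agar with 5% sheep blood; S. pneumoniae ATCC 49619 among QC strains each run. Isolates were recent U.S. strains plus some from South Africa, Europe and Korea.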

[4] = system: quinolone resistant pneumococci; experiment: Determination of efflux mechanism: MICs in the presence and absence of reserpine; format: cell-based, Streptococcus pneumoniae
Description: MICs were determined in the presence and absence of 10 μg/ml of reserpine (Sigma Chemicals, St. Louis, Mo.) as known in the art.
MICs were determined in the presence and absence of […] of reserpine (Sigma Chemicals, St. Louis, Mo., USA) as described previously (Brenwald, et al., Antimicrob. Agents Chemother. 42:2039-2035, 1998 and Davies, et al., Antimicrob. Agents Chemother. 43:1177-1182S, 1999).

pneumococcal strains = experiment: Microbroth dilution MICs of strains tested by time-kill and PAE; format: cell-based; details: Streptococcus pneumoniae
Method in brief: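 S. pneumoniae ATCC 49619 served as control in each run. For the 12 time-kill and 6 PAE strains, MICs came from NCCLS microbroth dilution using cation-adjusted Mueller-Hinton broth plus 5% lysed defibrinated horse blood.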

[5] = agar dilution, Penicillin I strains
[6] = agar dilution, Penicillin R strains
[7] = agar dilution, Penicillin S strains
[8] = agar dilution, all 207 strains (64 penicillin susceptible, 68 intermediate, 75 resistant)

CO/N=C1\CN(c2nc3c(cc2F)c(=O)c(C(=O)O)cn3C2CC2)CC1CN (racemic) [Gemifloxacin, (R,S)-7-(3-aminomethyl-4-methoxyiminopyrrolidin-1-yl)-1-cyclopropyl-6-fluoro-4-oxo-1,4-dihydro-1,8-naphthyridine-3-carboxylic acid]
concentration at which bactericidal after 24 h ([1]; 12 penicillin susceptible and resistant pneumococcal strains, 24 h, bactericidal = ≧3 log10 cfu/ml (99.9%) reduction): 2 ×MIC | concentration at which uniformly bactericidal after 24 h ([1]; all 12 strains, 24 h): ≤ 0.5 µg/mL | bactericidal activity for the two quinolone resistant pneumococcal strains ([1]; two quinolone resistant strains): bactericidal at the microbroth MIC | fold more active than ciprofloxacin, ofloxacin, sparfloxacin and trovafloxacin [2]: 32 to 64 fold and 32-64 fold | MIC50 [3, 5]: 0.03 µg/mL (≈ 0.077 µM) | MIC90 [3, 5]: 0.06 µg/mL (≈ 0.154 µM) | MIC ([3]; agar dilution, Penicillin I strains, read-out: MIC range): 0.008 to 0.25 µg/mL (≈ 0.0205 to 0.642 µM) | MIC50 [3, 6]: 0.03 µg/mL (≈ 0.077 µM) | MIC90 [3, 6]: 0.06 µg/mL (≈ 0.154 µM) | MIC50 [3, 7]: 0.03 µg/mL (≈ 0.077 µM) | MIC90 [3, 7]: 0.03 µg/mL (≈ 0.077 µM) | MIC50 [3, 8]: 0.03 µg/mL (≈ 0.077 µM) | MIC90 [3, 8]: 0.06 µg/mL (≈ 0.154 µM) | MIC ([3]; read-out: MIC range, agar dilution, Penicillin R strains): 0.004 to 0.125 µg/mL (≈ 0.0103 to 0.321 µM) | MIC ([3]; read-out: MIC range, agar dilution, Penicillin S strains): 0.008 to 0.125 µg/mL (≈ 0.0205 to 0.321 µM) | lower MICs in the presence of reserpine, fold range over affected strains ([4]; 28 quinolone resistant strains, 10 μg/ml reserpine): 2-4 × | number of strains with lower MICs in the presence of reserpine ([4]; of 28 quinolone resistant strains, 10 μg/ml reserpine): 13 strains | Number of dilutions decrease after incubation with reserpine ([4]; strain 1): 2X^a | lower MIC in the presence of reserpine (efflux mechanism) ([4]; strain 1, 10 μg/ml reserpine): 2X^a | Number of dilutions decrease after incubation with reserpine ([4]; strain 5): 2X | lower MIC in the presence of reserpine (efflux mechanism) ([4]; strain 5, 10 μg/ml reserpine): 2X | Number of dilutions decrease after incubation with reserpine ([4]; strain 7): 2X | lower MIC in the presence of reserpine (efflux mechanism) ([4]; strain 7, 10 μg/ml reserpine): 2X | Number of dilutions decrease after incubation with reserpine ([4]; strain 8): 2X | lower MIC in the presence of reserpine (efflux mechanism) ([4]; strain 8, 10 μg/ml reserpine): 2X | Number of dilutions decrease after incubation with reserpine ([4]; strain 9): 4X | lower MIC in the presence of reserpine (efflux mechanism) ([4]; strain 9, 10 μg/ml reserpine): 4X | Number of dilutions decrease after incubation with reserpine ([4]; strain 11): 2X | lower MIC in the presence of reserpine (efflux mechanism) ([4]; strain 11, 10 μg/ml reserpine): 2X | Number of dilutions decrease after incubation with reserpine ([4]; strain 12): 2X | lower MIC in the presence of reserpine (efflux mechanism) ([4]; strain 12, 10 μg/ml reserpine): 2X | Number of dilutions decrease after incubation with reserpine ([4]; strain 16): 2X | lower MIC in the presence of reserpine (efflux mechanism) ([4]; strain 16, 10 μg/ml reserpine): 2X | Number of dilutions decrease after incubation with reserpine ([4]; strain 17): 2X | lower MIC in the presence of reserpine (efflux mechanism) ([4]; strain 17, 10 μg/ml reserpine): 2X | Number of dilutions decrease after incubation with reserpine ([4]; strain 23): 2X | lower MIC in the presence of reserpine (efflux mechanism) ([4]; strain 23, 10 μg/ml reserpine): 2X | Number of dilutions decrease after incubation with reserpine ([4]; strain 25): 2x X | lower MIC in the presence of reserpine (efflux mechanism) ([4]; strain 25, 10 μg/ml reserpine): 2x X | Number of dilutions decrease after incubation with reserpine ([4]; strain 26): 2x X | lower MIC in the presence of reserpine (efflux mechanism) ([4]; strain 26, 10 μg/ml reserpine): 2x X | Number of dilutions decrease after incubation with reserpine ([4]; strain 28): 4x X | lower MIC in the presence of reserpine (efflux mechanism) ([4]; strain 28, 10 μg/ml reserpine): 4x X | MIC (pneumococcal strains; broth MIC, quinolone resistant PAE strain, read-out: MIC against the quinolone resistant strain tested for PAE): 0.25 µg/mL (≈ 0.642 µM) | MIC (pneumococcal strains; strain 1 (S) penicillin susceptible, read-out: Microdilution MIC): 0.016 µg/mL (≈ 0.0411 µM) | MIC (pneumococcal strains; strain 2 (S) penicillin susceptible, read-out: Microdilution MIC): 0.016 µg/mL (≈ 0.0411 µM) | MIC (pneumococcal strains; strain 3 (S) penicillin susceptible, quinolone-resistant, read-out: Microdilution MIC): 0.5 µg/mL (≈ 1.28 µM) | MIC (pneumococcal strains; strain 4 (S) penicillin susceptible, quinolone-resistant, read-out: Microdilution MIC): 0.25 µg/mL (≈ 0.642 µM) | MIC (pneumococcal strains; strain 5 (I) penicillin intermediate, read-out: Microdilution MIC): 0.03 µg/mL (≈ 0.077 µM) | MIC (pneumococcal strains; strain 6 (I) penicillin intermediate, read-out: Microdilution MIC): 0.016 µg/mL (≈ 0.0411 µM) | MIC (pneumococcal strains; strain 7 (I) penicillin intermediate, read-out: Microdilution MIC): 0.016 µg/mL (≈ 0.0411 µM) | MIC (pneumococcal strains; strain 8 (I) penicillin intermediate, read-out: Microdilution MIC): 0.016 µg/mL (≈ 0.0411 µM) | MIC (pneumococcal strains; strain 9 (R) penicillin resistant, read-out: Microdilution MIC): 0.03 µg/mL (≈ 0.077 µM) | MIC (pneumococcal strains; strain 10 (I), read-out: Microdilution MIC): 0.016 µg/mL (≈ 0.0411 µM) | MIC (pneumococcal strains; strain 11 (R) penicillin resistant, read-out: Microdilution MIC): 0.016 µg/mL (≈ 0.0411 µM) | MIC (pneumococcal strains; strain 12 (R) penicillin resistant, read-out: Microdilution MIC): 0.03 µg/mL (≈ 0.077 µM)
